# Columns and labels:
# [1] = system: NFκB DNA binding activity; test: Electromobility shift assay, sulfasalazine-treated hepatic stellate cells; format: cell-based; conditions: day 7 HSC; 0.5, 1 and 2 mM for 24 hours
# [2] = system: NFκB responsive gene promoters; test: NFκB responsive gene promoter activity; format: cell-based; conditions: 24 hours, versus untreated cells
# [3] = system: activated hepatic stellate cells; test: Apoptosis of activated hepatic stellate cells by acridine orange, sulfasalazine; format: cell-based; conditions: 24 hours
# Method: (§1) Treatment of activated hepatic stellate cells with Sulfasalazine (at a concentration of 0.5, 1 or 2 mM) for 24 hours induced a dose-dependent increase in apoptosis visualised by both Acridine Orange staining (30%, 45% and 55% respectively).
# [4] = system: caspase 3 activity; test: Caspase 3 activity, sulfasalazine-treated hepatic stellate cells; format: cell-based; conditions: 0.5, 1 or 2 mM
# Method: as §1
# [5] = system: experimentally induced fibrosis; test: Recovery from carbon tetrachloride induced fibrosis in rats, sulfasalazine; format: in vivo, rat
# Method: Adult male Sprague Dawley rats were treated twice weekly for six weeks by intraperitoneal injection of the hepatotoxin carbon tetrachloride and then allowed to recover for 24 hours prior to treatment with either vehicle control or sulfasalazine. Animals were then left to recover for either a further 16 or 72 hours.
# [6] = system: rat hepatic stellate cells; test: Morphology and detachment of culture-activated rat hepatic stellate cells (light microscopy); format: cell-based
# Description: (§2) Rat hepatic stellate cells (HSCs) were isolated by pronase/collagenase perfusion and purified by isopycnic density centrifugation in Opti-prep™ (Nycomed, Amersham, England) and elutriation essentially as previously described (Bahr et al., Hepatology (1999) 29:839-848). Human hepatic stellate cells were isolated from discarded resected liver via a similar protocol (Trim et al., J. Biol. Chem., (2000) 275:6657-6663). The use of human liver tissue for scientific investigation was approved by the UK South and West Local Research Ethics Committee and was subject to patient consent.
# (§3) It has been shown recently that liver myofibroblasts may contribute to liver fibrogenesis and that liver myofibroblasts may have the potential to contaminate passaged hepatic stellate cell cultures (Knittel et al., Gastronenterology, (1999) 117:1205-1221). In this study, only primary cultures of hepatic stellate cells were used, which were desmin and glial fibrillary acid protein positive (markers shown to be expressed in hepatic stellate cells, but not liver myofibroblasts—Knittel et al., supra).
# Cells were treated with gliotoxin dissolved in DMSO vehicle (added to medium from a 2000-fold molar concentrated stock). Control cells received DMSO vehicle only (i.e., 0.05% vol/vol). All other additions to culture medium were made from concentrated stocks dissolved in DMSO or by direct addition to culture medium. Protein contents of wells were determined using the Lowry assay (Lowry et al., J. Biol. Chem., (1951)193: 265-275).
# Culture activated rat (14 day) and human (24 day) hepatic stellate cells were treated with DMSO solvent control or 1.5 μMol/L gliotoxin. […] Hepatic stellate cells changed from a flattened fibroblastic phenotype with distinct cell-cell interfaces to a substratum detached, rounded, and blebbed morphology.
# [7] = system: human hepatic stellate cells; test: Morphology of culture-activated human hepatic stellate cells (light microscopy); format: cell-based
# Description: as §2, §3
# Cells were treated with gliotoxin dissolved in DMSO vehicle (added to medium from a 2000-fold molar concentrated stock). Control cells received DMSO vehicle only (i.e., 0.05% vol/vol). […] Protein contents of wells were determined using the Lowry assay (Lowry et al., J. Biol. Chem., (1951)193: 265-275). […]
# [8] = system: rat hepatic stellate cells; test: Low molecular weight DNA fragmentation (nucleosomal ladder) in rat hepatic stellate cells; format: cell-based
# Method: Hepatic stellate cells cultured in 35-mm diameter dishes (Greiner) were harvested, pelleted by centrifugation and DNA fragmentation determined as outlined elsewhere (Elsharkawy et al., Hepatology (1999) 30:761-769). Propidium Iodide Flow-Activated Cell Sorting Analysis Detached cells were pelleted by centrifugation, washed in PBS, and resuspended in HYPO buffer (0.1% wt/vol) Na3Citrate and 0.1% (wt/vol) Triton™ X-100 containing […] propidium iodide and incubated for 1 hour. The cells were then analyzed by fluorescence-activated cell sorter (FACS) with a Becton Dickinson (San Jose, Calif.) FACScan instrument using a 488 nm excitation wavelength with a band pass filter set at 530 nm. Attached cells were scraped in HYPO buffer after washing cells with PBS.
# The effect of gliotoxin on the cleavage of DNA to a nucleosomal ladder was examined because this phenomenon is characteristic of apoptosis. Culture activated (14-day) rat hepatic stellate cells in six well plates were treated with either 0.05% (vol/vol) DMSO for four hours or 1.5 μmol/L gliotoxin for zero hours, half an hour, one hour, two hours or four hours. At each time point, both detached and attached cells were harvested together and low molecular weight DNA (20,000 g supernatant) fragmentation determined as outlined in the materials and methods section. At least three separate experiments were performed. 1 kilobase DNA ladder (Promega) was used as a molecular weight marker.
# The effect of various compounds on DNA laddering was then determined. Culture-activated (14-day) rat hepatic stellate cells in six-well plates were treated with:
# After fours hours of treatment, DNA fragmentation was determined.
# Culture activated (14 day) rat hepatic stellate cells in six well plates were treated with: • (a) 0.05% (vol/vol) DMSO; • (b) 1.5 μmol/L gliotoxin; • (c) 1.5 μmol/L gliotoxin with 100 μmol/L tamoxifen; • (d) 1.5 μmol/L gliotoxin with […] actinomycin d; • (e) 1.5 μmol/L gliotoxin with 10 μmol/L cycloheximide; • (f) 1.5 μmol/L gliotoxin with 10 μmol/L cyclosporin; • (g) 1.5 μmol/L gliotoxin with […] m-iodobenzylguanidine; • (h) 1.5 μmol/L gliotoxin with 50 μmol/L quin-2-am; • (i) 50 μmol/L guin-2-am alone; • (j) 250 μmol/L m-iodobenzylguanidine; • (k) 10 μmol/L cyclosporin; • (l) 10 μmol/L cycloheximide; • (m) 1 μg/ml actinomycin d; or • (n) 100 μmol/L tamoxifen.
# After four hours of treatment, DNA fragmentation was determined as outlined in Materials and Methods.
# [9] = system: hepatic stellate cells; test: Nerve growth factor induced apoptosis of hepatic stellate cells; format: cell-based; conditions: NGF 100 ng/ml, absolute serum deprivation
# Method: Apoptosis of hepatic stellate cells was induced by absolute serum deprivation, cycloheximide treatment (Issa et al., Gut (2001) 48: S48-S57), or exposure to nerve growth factor as previously described (Trim et al., Am. J. Pathol., (2000) 156, 1235-1243). Hepatic stellate cells were cultured in 24-well tissue culture plates. Rat and human hepatic stellate cells were exposed to proapoptotic stimuli with and without recombinant TIMP-1 (Biogenesis, Poole, UK) and other manipulations as detailed below. Following a 4 hour incubation at 37° C., nuclear morphology was assessed by adding acridine orange to each well (final concentration 1 μg/ml) and observing the cells under blue fluorescence. The total number of apoptotic bodies was counted, and any apoptotic bodies floating in the supernatant were included by racking up the objective lens. The total number of cells per field was counted, and an apoptotic index was calculated. Each condition was performed in duplicate, and three high power fields were counted for each well. […] To examine for autocrine effects, hepatic stellate cells were incubated for 18 hours with azide-free polyclonal neutralizing antibodies to TIMP-1 and a nonimmune IgG control (Santa Cruz Biotechnology, Inc., Santa Cruz, Calif.), and responses were assessed by acridine orange staining and counting. […]
# [10] = system: rat hepatic stellate cells; test: Hepatic stellate cell apoptosis by acridine orange staining and counting (cycloheximide or serum deprivation), rat cells; format: cell-based; conditions: rat HSC; protein at 142.5 ng/ml
# Method: (§4) Human hepatic stellate cells were extracted from the margins of normal human liver resected for colonic metastatic disease as previously described (Iredale et al., Clin. Sci., (1995) 89: 75-81). Rat hepatic stellate cells were extracted from normal rat liver by Pronase and collagenase digestion and purified by centrifugal elutriation as described (Arthur et al., J. Clin. Invest., (1989) 84:1076-1085). Extracted hepatic stellate cells were cultured on plastic until they were activated to a myofibroblastic phenotype after 7 to 10 days. Human and rat hepatic stellate cells were used for experiments after activation in primary culture or before fourth passage. Cells were cultured in Dulbecco's modified Eagle's medium in the presence of 16% fetal calf serum and antibiotics.
# Apoptosis of hepatic stellate cells was induced by absolute serum deprivation, cycloheximide treatment (Issa et al., Gut (2001) 48: S48-S57), or exposure to nerve growth factor as previously described (Trim et al., Am. J. Pathol., (2000) 156, 1235-1243). Hepatic stellate cells were cultured in 24-well tissue culture plates. Rat and human hepatic stellate cells were exposed to proapoptotic stimuli with and without recombinant TIMP-1 (Biogenesis, Poole, UK) and other manipulations as detailed below. Following a 4 hour incubation at 37° C., nuclear morphology was assessed by adding acridine orange to each well (final concentration 1 μg/ml) and observing the cells under blue fluorescence. The total number of apoptotic bodies was counted, and any apoptotic bodies floating in the supernatant were included by racking up the objective lens. The total number of cells per field was counted, and an apoptotic index was calculated. Each condition was performed in duplicate, and three high power fields were counted for each well. […] To examine for autocrine effects, hepatic stellate cells were incubated for 18 hours with azide-free polyclonal neutralizing antibodies to TIMP-1 and a nonimmune IgG control (Santa Cruz Biotechnology, Inc., Santa Cruz, Calif.), and responses were assessed by acridine orange staining and counting.
# Apoptosis was assessed by acridine orange staining. […] A normal cell lies adjacent to the apoptotic body. This technique was used to determine the percentage of apoptotic hepatic stellate cells following exposure to cyclohexamide in the presence or absence of TIMP-1. Hepatic stellate cells were exposed to 50 μM cyclohexamide and 0, 1, 10, 100 or 200 ng/ml of TIMP-1. Cells treated with serum alone were used as controls. […] Bovine serum albumin, used as a carrier for the TIMP-1 had no antiapoptotic effect.
# [11] = system: human hepatic stellate cells; test: Hepatic stellate cell apoptosis by acridine orange staining and counting (cycloheximide or serum deprivation), human cells; format: cell-based; conditions: human HSC; protein at 142.5 ng/ml
# Method: as §4
# Apoptosis of hepatic stellate cells was induced by absolute serum deprivation, cycloheximide treatment (Issa et al., Gut (2001) 48: S48-S57), or exposure to nerve growth factor as previously described (Trim et al., Am. J. Pathol., (2000) 156, 1235-1243). Hepatic stellate cells were cultured in 24-well tissue culture plates. […] Following a 4 hour incubation at 37° C., nuclear morphology was assessed by adding acridine orange to each well (final concentration 1 μg/ml) and observing the cells under blue fluorescence. The total number of apoptotic bodies was counted, and any apoptotic bodies floating in the supernatant were included by racking up the objective lens. The total number of cells per field was counted, and an apoptotic index was calculated. Each condition was performed in duplicate, and three high power fields were counted for each well. […] To examine for autocrine effects, hepatic stellate cells were incubated for 18 hours with azide-free polyclonal neutralizing antibodies to TIMP-1 and a nonimmune IgG control (Santa Cruz Biotechnology, Inc., Santa Cruz, Calif.), and responses were assessed by acridine orange staining and counting.
# Apoptosis was assessed by acridine orange staining. […]
# [12] = system: caspase-3 activity in hepatic stellate cells; test: Caspase-3 activity in cycloheximide-treated hepatic stellate cells; format: cell-based; conditions: wild type TIMP-1 or T2G mutant N-TIMP-1
# Method: Apoptosis was quantified by a colorimetric assay for caspase-3 activity (Promega) according to the manufacturer's instructions.
# Caspase-3 is a central caspase in the proapoptotic cascade (Hengartner, Nature (2000) 407, 770-776) and can be used as an alternative assay to assess apoptosis. Hepatic stellate cells were cultured in 50 μM cycloheximide with TIMP-1 at a concentration of 0, 1, 10, or 100 ng/ml. Controls where cells were incubated with either the caspase 3 inhibitor benzyloxycarbonyl-Val-Ala-Asp-fluoromethylketone or serum alone were also performed. Data are expressed as mean ±S.E. and are presented as percentage of control given the arbitrary value of 100%. * indicates p<0.001; n=3. […] Although the mean caspase-3 activity of the cells treated with 10 ng/ml TIMP-1 was slightly lower than that treated with 100 ng/ml of TIMP-1, this was not statistically significant (p=0.67 by Student's t test).
# [13] = molecular target: MMP-3 (Homo sapiens, UniProt P08254); conditions: T2G versus wild type; cited from earlier work
# MMP-3, sequence (P08254 100-477, species assumed): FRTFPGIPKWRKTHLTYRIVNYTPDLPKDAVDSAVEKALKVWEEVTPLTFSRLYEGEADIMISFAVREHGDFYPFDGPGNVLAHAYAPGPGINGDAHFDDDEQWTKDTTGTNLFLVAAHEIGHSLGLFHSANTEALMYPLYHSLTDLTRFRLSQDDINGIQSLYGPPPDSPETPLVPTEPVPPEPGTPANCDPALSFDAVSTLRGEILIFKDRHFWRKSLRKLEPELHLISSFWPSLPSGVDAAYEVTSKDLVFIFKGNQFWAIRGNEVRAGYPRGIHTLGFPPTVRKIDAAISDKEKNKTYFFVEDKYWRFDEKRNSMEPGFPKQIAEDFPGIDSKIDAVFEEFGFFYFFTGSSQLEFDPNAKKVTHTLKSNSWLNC
compound,measurement,setting,value
O=C(O)c1cc(/N=N/c2ccc(S(=O)(=O)Nc3ccccn3)cc2)ccc1O [Sulfasalazine],NFκB DNA binding activity,[1],dose dependently inhibited NFκB DNA binding activity
same,"activity of NFκB responsive gene promoters (PGJ21 (4xNFκB), IL6 and IκBα)",[2],repressed the activity of three NFκB responsive gene promoters
same,activity of control 7×AP1 promoter,[2],but not a control 7×AP1 promoter
same,apoptosis by Acridine Orange staining,[3]; 0.5 mM,30%
same,apoptosis by Acridine Orange staining,[3]; 1 mM,45%
same,apoptosis by Acridine Orange staining,[3]; 2 mM,55%
same,caspase 3 activity,[4],increased caspase 3 activity in a dose-dependent manner
same,collagen deposition (fibrosis) versus control livers,"[5]; six weeks CCl4, 16 hours recovery",no significant difference in collagen deposition
same,collagen versus control livers,"[5]; six weeks CCl4, 72 hours recovery",significantly less collagen
same,"fibrosis score (1-4; 1 no fibrosis, 4 cirrhosis)","[5]; six weeks CCl4, 72 hours recovery, control livers 3",1.5
same,numbers of activated hepatic stellate cells versus control livers,"[5]; six weeks CCl4, treatment 24 hours later, 16 hours recovery",large reduction in numbers of activated hepatic stellate cells
"CS[C@]1(CO)C(=O)N2[C@H]3C(=CC=C[C@@H]3O)C[C@@]2(SC)C(=O)N1C [mt-glio, bis-dethio-bis(methylthio)-gliotoxin]",morphologic alterations,"[6]; culture activated (14 day) rat HSC, 1.5 μmol/L",had no effect on the morphology
same,morphologic alterations,"[7]; culture activated (24 day) human HSC, 1.5 μmol/L",had no effect on the morphology
same,cleavage of DNA to a nucleosomal ladder,"[8]; rat HSC, 1.5 μmol/L, up to four hours",did not result in the cleavage of DNA to a nucleosomal ladder
S=C(S)N1CCCC1 [pyrrolidine dithiocarbamate],effect on morphologic alterations / detachment caused by gliotoxin,"[6]; rat HSC, with 1.5 μmol/L gliotoxin, Z-VAD-FMK 100 μmol/L, PDTC 300 μmol/L, tamoxifen 100 μmol/L, m-IBG 250 (mmol/L in the source), quin-2-am 50 μmol/L",blocked the morphologic effects of gliotoxin
same,effect on morphologic effects of gliotoxin,"[7]; human HSC, cotreatment with gliotoxin",blocked the morphologic effects of gliotoxin
same,effect on gliotoxin-induced cleavage of DNA to a nucleosomal ladder,"[8]; with 1.5 μmol/L gliotoxin, four hours, PDTC 300 μmol/L, tamoxifen 100 μmol/L, m-IBG 250 (mmol/L in the source), cyclosporin 10 μmol/L, quin-2-am 50 μmol/L",blocks the cleavage of DNA to a nucleosomal ladder
"NGF: nerve growth factor, ligand of p75 on hepatic stellate cells",apoptosis in hepatic stellate cells versus BSA carrier alone,[9],induced significantly more apoptosis
"T2G mutant N-TIMP-1: mutated nonfunctional TIMP-1, threonine to glycine at amino acid position 2, no MMP inhibitory activity",apoptosis induced by cycloheximide (acridine orange),[10],had no inhibitory effect
same,apoptosis induced by cycloheximide (acridine orange),[11],had no inhibitory effect
same,caspase-3 activity in cycloheximide-treated hepatic stellate cells,[12],no effect was observed
same,factor by which the mutation changes the inhibition constant of TIMP-1 for MMP-3,[13],over 1000
